Experimental findings from article PMC11204923, “Marine Cytotoxin Santacruzamate A Derivatives as Potent HDAC1-3 Inhibitors and Their Synergistic Anti-Leukemia Effects with Venetoclax” (Marine Drugs, 2024) are described below.

Assay [1] has as its system MV4-11 cells. The assay is described as follows: Cell viability assay (resazurin), MV4-11. It is filed as cell-based. The note with it: Homo sapiens, MV4-11, 72 h; read-out: IC50 anti-proliferative activity MV4-11. As for the experimental part:
(§1) The AML cell lines MV4-11, THP-1, KASUMI-1 and HL-60 were purchased from Procell Life Science & Technology Co., Ltd. (Wuhan, China). THP-1 and KASUMI-1 were cultured in RPMI-1640 complete medium containing 10% fetal bovine serum and 1% penicillin and streptomycin. MV4-11 was cultured in IMDM complete medium containing 10% fetal bovine serum and 1% penicillin and streptomycin. HL-60 was cultured in IMDM complete medium containing 20% fetal bovine serum and 1% penicillin and streptomycin. All cell lines were cultured in an incubator with humidity set at 95%, temperature at 37 °C and 5% CO2.
(§2) MV4-11, THP-1, KASUMI-1 and HL-60 cells were plated in 96-well transparent plates (10,000 to 15,000 cells/100 μL) and after incubation overnight, cells were treated with gradient-diluted inhibitors with several concentrations. After the cells were incubated with inhibitors for 72 h, 1 mg/mL of Resazurin (Sigma-Aldrich, Saint Louis, MO, USA) was added (working concentration was 0.1 mg/mL). After incubation at 37 °C for about 3 h, the fluorescence intensity of […] was measured at 560 nm/590 nm (excitation/emission) with a Spectra Max i3 Microplate Reader, and the cell viability was determined. The IC50 curve was drawn using GraphPad Prism 9.5 software.

Assay [2] deals with T1, HDAC3 (Homo sapiens, UniProt O15379).
T1 construct: purchased BPS Bioscience
The assay is described as follows: In vitro HDAC inhibition fluorescence assay, HDAC3. The note with it: for inhibition at 0.01 µM: 10 nM; for inhibition at 0.01 µM / inhibition at 0.1 µM: read-out: Inhibition Rate of HDAC3 (%); for inhibition at 0.1 µM: 100 nM. In kind it is biochemical. As for the experimental part: (§3) All of the HDAC enzymes were purchased from BPS Bioscience. In vitro HDAC inhibition assays were conducted as previously described. In brief, 20 μL of recombinant HDAC enzyme solution (HDAC1-9, 11) was mixed with various concentrations of the tested compound (20 μL). […] After incubation at 37 °C for 2 h, the catalysis was stopped by the addition of 10 μL of developer containing 30 mg/mL trypsin and 6 μM trichostatin A (TSA). Then, 30 min later, the fluorescence intensity was measured using a microplate reader at excitation and emission wavelengths of 360 and 460 nm, respectively. The inhibition ratios were calculated from the fluorescence intensity readings of tested wells relative to those of control wells, and the IC50 curves and values were determined by GraphPad Prism 6.0, using the “log(inhibitor) vs. normalized response-variable slope” function.

For assay [3], the system named is Kasumi-1 cells. The experiment in a line: Cell viability assay (resazurin), Kasumi-1. In kind it is cell-based. Particulars: Homo sapiens, Kasumi 1, 72 h; read-out: IC50 anti-proliferative activity Kasumi-1. As for the experimental part:
as §1, §2

For assay [4], the system named is THP-1 cells. The experiment in a line: Cell viability assay (resazurin), THP-1. In kind it is cell-based. Particulars: Homo sapiens, THP-1, 72 h; read-out: IC50 anti-proliferative activity THP-1. As for the experimental part: as §1, §2
For assay [5], the system named is HL-60 cells. The assay is described as follows: Cell viability assay (resazurin), HL-60. It is filed as cell-based. Particulars: Homo sapiens, HL-60, 72 h; read-out: IC50 anti-proliferative activity HL-60. As for the experimental part:
as §1, §2

For assay [6], the target named is T2, HDAC1 (Homo sapiens, UniProt Q13547).
T2 construct: purchased BPS Bioscience
The assay is described as follows: In vitro HDAC inhibition fluorescence assay, HDAC1. It is filed as biochemical. Particulars: for inhibition at 0.01 µM: 10 nM; for inhibition at 0.01 µM / inhibition at 0.1 µM: read-out: Inhibition Rate of HDAC1 (%); for inhibition at 0.1 µM: 100 nM. As for the experimental part:
as §3

Assay [7] addresses T3, HDAC2 (Homo sapiens, UniProt Q92769).
T3 construct: purchased BPS Bioscience
The experiment in a line: In vitro HDAC inhibition fluorescence assay, HDAC2. In kind it is biochemical. As for the experimental part:
as §3

Assay [8] relates to MV4-11, THP-1, HL60 and Kasumi-1 cells. The experiment in a line: Cell viability assay, four AML cell lines together. In kind it is cell-based. The note with it: synthesized SCA. As for the experimental part:
as §1, §2

Assay [9] concerns MV4-11 cells. The experiment in a line: Microdilution checkerboard assay, 25c combined with Venetoclax. The note with it: Homo sapiens, 72 h, read-out: Inhibition Rate (%). It is filed as cell-based. As for the experimental part: The inhibition effect of 25c combined with Venetoclax on the proliferation of MV4-11 cells was determined by microdilution checkerboard assay. CompuSyn software was used to calculate the combined action index of the two compounds, and the cell inhibition rates of the two compounds acting alone and the combined action were input to calculate the combination index (CI) to evaluate the synergistic effect of the drugs. A CI value less than 1 indicates a synergistic effect, a CI value equal to 1 indicates an additive effect and a CI value greater than 1 indicates an antagonistic effect.

Assay [10] deals with MV4-11 cells. The assay is described as follows: Western blot analysis. In kind it is cell-based. Particulars: Venetoclax monotherapy, 24 h. As for the experimental part:
MV4-11 cells were inoculated into 12-well plates at a density of 800,000 cells/mL. After incubation overnight, each well was treated with different concentrations of 25c and Venetoclax alone or in combination. After treatment for 24 h, the cells were collected and washed with pre-cooled PBS. A protease inhibitor (cocktail) and RIPA buffer were added for cell lysis. The decomposed solution was centrifuged at 12,000 rpm for 15 min at 4 °C, and the extracted protein was located in the supernatant. The proteins in each sample were denatured by heating at 100 °C in loading buffer (5×) for 10 min. The same amount of proteins in each sample was separated by SDS-PAGE and then electrotransferred to a PVDF membrane (Merck Millipore, Billerica, MA, USA) and enclosed in 5% skim milk powder for 1 h. The primary antibody diluted with an immune response booster solution was incubated in a shaking bed at 4 °C overnight, and the horseradish (HRP)-conjugated second antibody diluted with 5% skim milk powder was incubated at room temperature for 1 h on the second day. After the PVDF membrane was washed with TBST, the target protein bands could be detected with chemiluminescent reagents (Millipore, Billerica, MA, USA) and visualized in the Tanon 5200 + fluorescence imager.
The primary antibodies Caspase 3 (including Cleaved Caspase-3) (sc-56053), Mcl-1 (94296S), Bcl-xL (ab98143), γ-H2AX (9718S), AcHH3 (Lys27) (8173S), AcHH4 (sc-377520), HH3 (ab1791), Ac-tubulin (sc-23950), HDAC6 (sc-28386), α-tubulin (sc-23948), GAPDH (sc-59540) and β-actin (8H10D10) were purchased from Abcam, Cell Signaling Technology and Santa Cruz Biotechnology.

T1 sequence (O15379 whole entry): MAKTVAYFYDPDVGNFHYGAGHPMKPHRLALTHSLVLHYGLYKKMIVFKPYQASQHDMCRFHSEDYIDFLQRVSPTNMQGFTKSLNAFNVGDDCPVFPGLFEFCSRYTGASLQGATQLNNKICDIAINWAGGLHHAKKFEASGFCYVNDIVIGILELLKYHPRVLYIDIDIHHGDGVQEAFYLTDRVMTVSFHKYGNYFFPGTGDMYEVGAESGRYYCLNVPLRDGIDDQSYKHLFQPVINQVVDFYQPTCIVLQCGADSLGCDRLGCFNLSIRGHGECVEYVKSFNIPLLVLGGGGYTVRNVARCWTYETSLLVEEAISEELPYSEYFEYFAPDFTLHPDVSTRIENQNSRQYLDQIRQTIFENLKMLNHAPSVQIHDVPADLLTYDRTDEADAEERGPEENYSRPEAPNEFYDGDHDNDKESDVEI
T1 sequence (Q9Y618 395-489 partner limits assumed): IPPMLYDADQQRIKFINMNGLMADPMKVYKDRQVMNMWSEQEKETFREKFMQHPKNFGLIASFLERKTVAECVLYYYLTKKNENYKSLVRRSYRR
T2 sequence (Q13547 whole entry): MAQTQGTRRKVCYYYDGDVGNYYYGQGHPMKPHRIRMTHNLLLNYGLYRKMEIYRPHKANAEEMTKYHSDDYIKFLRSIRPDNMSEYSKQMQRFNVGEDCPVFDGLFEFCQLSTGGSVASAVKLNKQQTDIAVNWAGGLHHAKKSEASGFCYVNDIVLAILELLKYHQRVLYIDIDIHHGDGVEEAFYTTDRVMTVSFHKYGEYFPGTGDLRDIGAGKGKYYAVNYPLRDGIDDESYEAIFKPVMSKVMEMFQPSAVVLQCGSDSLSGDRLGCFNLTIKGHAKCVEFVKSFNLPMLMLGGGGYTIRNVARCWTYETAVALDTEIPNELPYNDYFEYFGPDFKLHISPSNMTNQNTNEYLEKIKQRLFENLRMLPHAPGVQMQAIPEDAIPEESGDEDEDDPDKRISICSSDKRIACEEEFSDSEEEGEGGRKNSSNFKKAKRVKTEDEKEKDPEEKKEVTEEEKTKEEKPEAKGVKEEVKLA
T3 sequence (Q92769 whole entry): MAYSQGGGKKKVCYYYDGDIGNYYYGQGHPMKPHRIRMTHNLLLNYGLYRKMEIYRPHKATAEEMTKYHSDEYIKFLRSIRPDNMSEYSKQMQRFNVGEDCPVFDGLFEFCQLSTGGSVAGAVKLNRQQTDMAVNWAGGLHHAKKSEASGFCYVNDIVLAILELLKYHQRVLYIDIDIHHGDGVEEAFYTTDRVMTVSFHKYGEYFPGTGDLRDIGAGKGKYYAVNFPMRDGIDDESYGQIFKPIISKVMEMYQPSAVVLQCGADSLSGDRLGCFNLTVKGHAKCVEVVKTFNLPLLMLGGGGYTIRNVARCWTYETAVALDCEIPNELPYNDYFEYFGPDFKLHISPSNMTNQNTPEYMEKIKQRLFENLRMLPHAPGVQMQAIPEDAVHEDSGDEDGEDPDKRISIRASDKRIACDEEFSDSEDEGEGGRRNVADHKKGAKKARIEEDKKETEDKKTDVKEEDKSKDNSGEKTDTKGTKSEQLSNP

For the compound `CCCNNC(=O)C=Cc1ccc(CNCc2ccccc2)cc1` [Compound 25b, 3-(4-((Benzylamino)methyl)phenyl)-N′-propylacrylohydrazide], the half-inhibitory concentration (IC50) in assay [1] was 362 ± 76.8 nM; in [2], 2.7 ± 0.6 nM; in assay [3] it was 448 ± 122 nM; in [4], 516 ± 145 nM; in assay [5], 736 ± 24.8 nM; in [6] it was 27 ± 2 nM. In assay [7], this compound displayed an IC50 of 111 ± 16.9 nM. Also, the inhibition at 0.01 µM in assay [2] is 94.8 ± 0.1%; in [6] it was 21.8 ± 1.6%. Moreover, the inhibition at 0.1 µM came to 97.9 ± 0.2% in [2] and 77 ± 0.3% in assay [6].
As to `CCCNNC(=O)C=Cc1ccc(CNCc2ccccn2)cc1` [Compound 25d, N′-Propyl-3-(4-(((pyridin-2-ylmethyl)amino)methyl)phenyl)acrylohydrazide], in assay [2], it took 13 ± 6.4 nM to reach half-maximal inhibition (IC50), the inhibition at 0.01 µM stood at 62.5 ± 0.4% and the inhibition at 0.1 µM amounted to 86.9 ± 0.1%. Further, in [6], half-maximal inhibition (IC50) was put at 101 ± 27 nM, the inhibition at 0.01 µM was 9.3 ± 2.3% and the inhibition at 0.1 µM is 61.7 ± 1.1%. For the same compound, the concentration for half-maximal inhibition (IC50) in [7] is 314 ± 36.7 nM.
`CCCNNC(=O)C=Cc1ccc(CNC2Cc3ccccc3C2)cc1` [Compound 25e, 3-(4-(((2,3-Dihydro-1H-inden-2-yl)amino)methyl)phenyl)-N′-propylacrylohydrazide]: the half-inhibitory concentration (IC50) in [1] turned out to be 353 ± 119 nM; in [2] it was 3.1 ± 1.5 nM; in assay [3], 380 ± 147 nM; in assay [4] it was 451 ± 73.8 nM; in assay [5], 502 ± 189 nM; in assay [6] it was 36.5 ± 5 nM. In assay [7], the half-inhibitory concentration (IC50) came to 161 ± 29 nM. Besides, the values for the inhibition at 0.01 µM in assay [2] and in assay [6] were 94.8 ± 0.5% and 10.9 ± 1.2%, respectively. Also, the inhibition at 0.1 µM in [2] came out at 95.6 ± 0.2%; in assay [6], 78.7 ± 0.7%.
On to `CCCNNC(=O)C=Cc1ccc(CNCc2cccc3ccccc23)cc1` [Compound 25g, 3-(4-(((Naphthalen-1-ylmethyl)amino)methyl)phenyl)-N′-propylacrylohydrazide], for which the IC50 in assay [1] stood at 582 ± 240 nM; in assay [3], 1010 ± 643 nM; in assay [4] it was 1020 ± 498 nM; in assay [5], 650 ± 247 nM; in assay [6], 16 ± 1 nM; in assay [7] it was 46.3 ± 4.1 nM. Also, the inhibition at 0.01 µM in assay [2] is 45.9%; in assay [6] it was 33.9%. Moreover, the results for the inhibition at 0.1 µM in [2] and in [6] were 71.1 ± 1.6% and 76.5 ± 5%, respectively.
As for `CCCNNC(=O)C=Cc1ccc(CN2C(=O)c3ccccc3C2=O)cc1` [Compound 30, 3-(4-((1,3-Dioxoisoindolin-2-yl)methyl)phenyl)-N′-propylacrylohydrazide], in assay [2], inhibition was half-maximal at 27.8 ± 1.8 nM (IC50), the inhibition at 0.01 µM was determined as 53.9 ± 0.4% and the inhibition at 0.1 µM came out at 85.1 ± 0.1%. Also, in [6], inhibition was half-maximal at 136 ± 20.6 nM (IC50), the inhibition at 0.01 µM amounted to 5.1 ± 1.3% and the inhibition at 0.1 µM is 28.4 ± 1.1%. For the same compound, in assay [7], the IC50 was 651.9 ± 3.4 nM.
On to `Nc1ccccc1NC(=O)c1ccc(CNC(=O)OCc2cccnc2)cc1` [Entinostat, reference compound], for which the IC50 in [1] stood at 651 ± 37.4 nM; in [3], 480 ± 161 nM; in assay [4] it was 1520 ± 218 nM; in assay [5], 1100 ± 51.5 nM. Besides, the inhibition at 0.01 µM in assay [6] was 3.8 ± 1.1%. Further, the inhibition at 0.1 µM in assay [6] came out at 37.6 ± 2.6%.
As to `CCOC(=O)NCCCC(=O)NCCc1ccccc1` [SCA, Santacruzamate A], the IC50 in assay [1], in assay [3], in assay [4] and in assay [5] was greater than 10000 nM each time. For the same compound, the “anti-proliferative inhibitory activity in four AML cell lines” value in assay [8] is “no inhibitory activity was detected”. Moreover, the “enzyme inhibitory activity, HDAC3” value in assay [2] (screening at 100 nM and 10 nM) is reported as “no activity”. Also, the “enzyme inhibitory activity, HDAC1” value in [6] (screening at 100 nM and 10 nM) was “no activity”.
`CC1(C)CCC(CN2CCN(c3ccc(C(=O)NS(=O)(=O)c4ccc(NCC5CCOCC5)c([N+](=O)[O-])c4)c(Oc4cnc5[nH]ccc5c4)c3)CC2)=C(c2ccc(Cl)cc2)C1` [Venetoclax]: in assay [9] (Venetoclax 0.04 μM alone), the inhibition at 0.04 µM is 36.5%. The inhibition at 0.08 µM in [9] (Venetoclax 0.08 μM alone) was 62.3%. In [9] (Venetoclax 0.15 μM alone), the inhibition at 0.15 µM is 78.5%. Moreover, the “level of cleaved-caspase3” value in assay [10] is reported as “slightly higher”.
